Source: ChEMBL document CHEMBL4507284, “Data for DCP probe BI-1230” (2021)

Tests used:
[1] = target: Calcium/calmodulin-dependent protein kinase kinase 1 (Homo sapiens) (UniProt Q8N5S9); settings: Compound concentration 1000.0 nM
[2] = target: Cyclin-dependent kinase 11A (Homo sapiens) (UniProt Q9UQ88); settings: Compound concentration 1000.0 nM
[3] = target: Serine/threonine-protein kinase Chk2 (Homo sapiens) (UniProt O96017); settings: Compound concentration 1000.0 nM
[4] = target: Testis-specific serine/threonine-protein kinase 1 (Homo sapiens) (UniProt Q9BXA7); settings: Compound concentration 1000.0 nM
[5] = target: SRSF protein kinase 3 (Homo sapiens) (UniProt Q9UPE1); settings: Compound concentration 1000.0 nM
[6] = target: Fibroblast growth factor receptor 4 (Homo sapiens) (UniProt P22455); settings: Compound concentration 1000.0 nM
[7] = target: Serine/threonine-protein kinase Nek10 (Homo sapiens) (UniProt Q6ZWH5); settings: Compound concentration 1000.0 nM
[8] = target: 5-hydroxytryptamine receptor 2A (Homo sapiens) (UniProt P28223); settings: Compound concentration 10.0 uM
5-hydroxytryptamine receptor 2A (Homo sapiens), sequence (P28223 whole entry): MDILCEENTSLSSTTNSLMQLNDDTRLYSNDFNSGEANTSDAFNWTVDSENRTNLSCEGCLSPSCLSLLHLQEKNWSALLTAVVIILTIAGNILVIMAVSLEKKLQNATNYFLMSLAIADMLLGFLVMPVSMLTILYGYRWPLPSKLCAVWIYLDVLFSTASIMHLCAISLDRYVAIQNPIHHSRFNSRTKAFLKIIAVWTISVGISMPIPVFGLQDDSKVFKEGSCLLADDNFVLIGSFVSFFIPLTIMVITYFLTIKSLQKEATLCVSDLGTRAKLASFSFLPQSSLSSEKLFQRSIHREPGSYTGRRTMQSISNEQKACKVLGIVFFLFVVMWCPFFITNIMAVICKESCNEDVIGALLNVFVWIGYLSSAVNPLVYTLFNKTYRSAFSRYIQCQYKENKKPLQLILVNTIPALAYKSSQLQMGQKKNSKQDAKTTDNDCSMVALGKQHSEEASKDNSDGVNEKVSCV

[9] = system: Mast/stem cell growth factor receptor Kit (Homo sapiens), P10721 [V559D,V654A]; settings: Compound concentration 1000.0 nM
[10] = target: Serine/threonine-protein kinase PAK 4 (Homo sapiens) (UniProt O96013); settings: Compound concentration 1000.0 nM
[11] = target: Cyclin-dependent kinase-like 5 (Homo sapiens) (UniProt O76039); settings: Compound concentration 1000.0 nM
[12] = target: RAF proto-oncogene serine/threonine-protein kinase (Homo sapiens) (UniProt P04049); settings: Compound concentration 1000.0 nM
RAF proto-oncogene serine/threonine-protein kinase (Homo sapiens), sequence (P04049 whole entry): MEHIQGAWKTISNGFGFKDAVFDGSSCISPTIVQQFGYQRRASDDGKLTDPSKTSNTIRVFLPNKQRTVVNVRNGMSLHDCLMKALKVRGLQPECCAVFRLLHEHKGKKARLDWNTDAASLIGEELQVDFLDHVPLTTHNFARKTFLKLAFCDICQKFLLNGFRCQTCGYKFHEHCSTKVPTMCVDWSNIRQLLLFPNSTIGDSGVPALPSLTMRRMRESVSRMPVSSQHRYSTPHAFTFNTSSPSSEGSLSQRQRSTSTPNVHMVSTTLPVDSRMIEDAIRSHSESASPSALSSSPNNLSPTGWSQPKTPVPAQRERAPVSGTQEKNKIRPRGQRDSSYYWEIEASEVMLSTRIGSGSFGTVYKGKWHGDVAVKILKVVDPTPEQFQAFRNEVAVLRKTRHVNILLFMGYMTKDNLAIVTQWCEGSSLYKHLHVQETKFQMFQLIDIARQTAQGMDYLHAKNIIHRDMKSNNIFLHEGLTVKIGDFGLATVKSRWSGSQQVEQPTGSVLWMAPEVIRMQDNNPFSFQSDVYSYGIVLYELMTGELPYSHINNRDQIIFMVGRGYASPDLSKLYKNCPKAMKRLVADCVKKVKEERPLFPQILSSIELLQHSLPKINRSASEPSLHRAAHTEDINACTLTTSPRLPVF

[13] = target: Tyrosine-protein kinase receptor TYRO3 (Homo sapiens) (UniProt Q06418); settings: Compound concentration 1000.0 nM
[14] = target: Interleukin-1 receptor-associated kinase 3 (Homo sapiens) (UniProt Q9Y616); settings: Compound concentration 1000.0 nM
[15] = system: Phosphatidylinositol 4,5-bisphosphate 3-kinase catalytic subunit alpha isoform (Homo sapiens), P42336 [C420R]; settings: Compound concentration 1000.0 nM
[16] = target: Sigma non-opioid intracellular receptor 1 (Homo sapiens) (UniProt Q99720); settings: Compound concentration 10.0 uM
[17] = target: Tyrosine-protein kinase ITK/TSK (Homo sapiens) (UniProt Q08881); settings: Compound concentration 1000.0 nM
[18] = target: MAP/microtubule affinity-regulating kinase 4 (Homo sapiens) (UniProt Q96L34); settings: Compound concentration 1000.0 nM
[19] = target: BDNF/NT-3 growth factors receptor (Homo sapiens) (UniProt Q16620); settings: Compound concentration 1000.0 nM
[20] = target: Phosphatidylinositol 4-kinase beta (Homo sapiens) (UniProt Q9UBF8); settings: Compound concentration 1000.0 nM
Phosphatidylinositol 4-kinase beta (Homo sapiens), sequence (Q9UBF8 2-816 limits assumed): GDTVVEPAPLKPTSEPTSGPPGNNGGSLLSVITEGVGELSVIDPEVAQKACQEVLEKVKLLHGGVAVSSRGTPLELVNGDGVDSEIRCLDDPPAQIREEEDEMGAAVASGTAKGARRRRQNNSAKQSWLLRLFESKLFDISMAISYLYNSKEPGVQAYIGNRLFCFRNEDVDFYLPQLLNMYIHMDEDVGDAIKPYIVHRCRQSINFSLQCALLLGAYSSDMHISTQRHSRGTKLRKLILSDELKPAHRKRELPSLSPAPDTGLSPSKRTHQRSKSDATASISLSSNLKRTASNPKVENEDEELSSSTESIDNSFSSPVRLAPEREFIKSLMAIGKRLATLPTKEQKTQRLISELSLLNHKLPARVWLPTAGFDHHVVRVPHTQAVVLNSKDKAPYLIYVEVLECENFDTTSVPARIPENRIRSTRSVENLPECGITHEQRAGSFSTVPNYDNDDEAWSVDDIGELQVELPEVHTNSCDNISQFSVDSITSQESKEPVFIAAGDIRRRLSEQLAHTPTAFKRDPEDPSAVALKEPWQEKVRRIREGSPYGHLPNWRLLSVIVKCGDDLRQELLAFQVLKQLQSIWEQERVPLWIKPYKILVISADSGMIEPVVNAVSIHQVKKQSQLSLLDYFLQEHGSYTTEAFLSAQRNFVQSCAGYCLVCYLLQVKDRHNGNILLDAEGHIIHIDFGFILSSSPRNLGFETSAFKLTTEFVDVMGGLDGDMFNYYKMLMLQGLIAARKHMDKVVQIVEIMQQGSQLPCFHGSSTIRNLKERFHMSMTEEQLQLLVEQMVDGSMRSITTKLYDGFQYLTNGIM

[21] = target: NT-3 growth factor receptor (Homo sapiens) (UniProt Q16288); settings: Compound concentration 1000.0 nM
[22] = target: Ribosomal protein S6 kinase alpha-6 (Homo sapiens) (UniProt Q9UK32); settings: Compound concentration 1000.0 nM
Ribosomal protein S6 kinase alpha-6 (Homo sapiens), sequence (Q9UK32 whole entry): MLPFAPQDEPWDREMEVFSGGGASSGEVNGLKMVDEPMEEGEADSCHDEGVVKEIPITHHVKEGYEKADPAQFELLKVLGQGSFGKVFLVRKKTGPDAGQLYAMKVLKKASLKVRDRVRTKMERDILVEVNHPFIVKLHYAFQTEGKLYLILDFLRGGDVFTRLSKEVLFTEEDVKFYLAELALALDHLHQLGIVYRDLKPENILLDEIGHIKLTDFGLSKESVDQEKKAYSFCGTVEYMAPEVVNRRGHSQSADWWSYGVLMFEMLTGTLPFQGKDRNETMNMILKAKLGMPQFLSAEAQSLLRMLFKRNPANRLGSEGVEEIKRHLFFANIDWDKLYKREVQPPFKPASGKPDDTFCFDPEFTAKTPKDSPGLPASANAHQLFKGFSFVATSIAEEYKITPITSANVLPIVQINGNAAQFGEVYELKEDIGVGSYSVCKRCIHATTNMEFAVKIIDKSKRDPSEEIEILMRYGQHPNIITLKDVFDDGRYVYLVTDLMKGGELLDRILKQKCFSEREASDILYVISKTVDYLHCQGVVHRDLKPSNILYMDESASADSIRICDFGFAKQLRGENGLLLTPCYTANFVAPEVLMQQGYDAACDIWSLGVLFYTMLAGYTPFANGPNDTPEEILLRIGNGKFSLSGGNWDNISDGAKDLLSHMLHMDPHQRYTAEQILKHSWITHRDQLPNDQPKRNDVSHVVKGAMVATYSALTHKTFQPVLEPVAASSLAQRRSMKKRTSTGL

[23] = target: Mitogen-activated protein kinase kinase kinase 6 (Homo sapiens) (UniProt O95382); settings: Compound concentration 1000.0 nM
[24] = target: Interleukin-1 receptor-associated kinase 1 (Homo sapiens) (UniProt P51617); settings: Compound concentration 1000.0 nM
Interleukin-1 receptor-associated kinase 1 (Homo sapiens), sequence (P51617 whole entry, looked up): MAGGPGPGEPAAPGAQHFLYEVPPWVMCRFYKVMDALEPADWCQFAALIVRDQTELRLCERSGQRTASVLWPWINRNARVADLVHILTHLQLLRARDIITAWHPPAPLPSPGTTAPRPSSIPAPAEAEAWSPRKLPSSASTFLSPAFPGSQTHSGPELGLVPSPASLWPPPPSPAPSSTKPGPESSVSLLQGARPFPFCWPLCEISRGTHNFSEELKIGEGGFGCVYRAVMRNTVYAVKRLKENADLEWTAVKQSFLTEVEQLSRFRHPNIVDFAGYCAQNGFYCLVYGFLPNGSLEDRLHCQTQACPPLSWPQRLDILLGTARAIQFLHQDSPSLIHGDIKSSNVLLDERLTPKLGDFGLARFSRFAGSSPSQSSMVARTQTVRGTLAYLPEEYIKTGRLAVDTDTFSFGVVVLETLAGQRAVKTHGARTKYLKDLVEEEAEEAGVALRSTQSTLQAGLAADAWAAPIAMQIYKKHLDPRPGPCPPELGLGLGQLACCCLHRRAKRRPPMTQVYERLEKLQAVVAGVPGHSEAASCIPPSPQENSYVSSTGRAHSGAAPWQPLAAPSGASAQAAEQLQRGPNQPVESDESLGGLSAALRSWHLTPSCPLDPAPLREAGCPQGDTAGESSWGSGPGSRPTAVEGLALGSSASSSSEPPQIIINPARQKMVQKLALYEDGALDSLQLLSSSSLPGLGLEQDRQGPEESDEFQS

[25] = target: STE20/SPS1-related proline-alanine-rich protein kinase (Homo sapiens) (UniProt Q9UEW8); settings: Compound concentration 1000.0 nM
[26] = target: Wee1-like protein kinase 2 (Homo sapiens) (UniProt P0C1S8); settings: Compound concentration 1000.0 nM
[27] = target: Receptor tyrosine-protein kinase erbB-2 (Homo sapiens) (UniProt P04626); settings: Compound concentration 1000.0 nM
Receptor tyrosine-protein kinase erbB-2 (Homo sapiens), sequence (P04626 whole entry): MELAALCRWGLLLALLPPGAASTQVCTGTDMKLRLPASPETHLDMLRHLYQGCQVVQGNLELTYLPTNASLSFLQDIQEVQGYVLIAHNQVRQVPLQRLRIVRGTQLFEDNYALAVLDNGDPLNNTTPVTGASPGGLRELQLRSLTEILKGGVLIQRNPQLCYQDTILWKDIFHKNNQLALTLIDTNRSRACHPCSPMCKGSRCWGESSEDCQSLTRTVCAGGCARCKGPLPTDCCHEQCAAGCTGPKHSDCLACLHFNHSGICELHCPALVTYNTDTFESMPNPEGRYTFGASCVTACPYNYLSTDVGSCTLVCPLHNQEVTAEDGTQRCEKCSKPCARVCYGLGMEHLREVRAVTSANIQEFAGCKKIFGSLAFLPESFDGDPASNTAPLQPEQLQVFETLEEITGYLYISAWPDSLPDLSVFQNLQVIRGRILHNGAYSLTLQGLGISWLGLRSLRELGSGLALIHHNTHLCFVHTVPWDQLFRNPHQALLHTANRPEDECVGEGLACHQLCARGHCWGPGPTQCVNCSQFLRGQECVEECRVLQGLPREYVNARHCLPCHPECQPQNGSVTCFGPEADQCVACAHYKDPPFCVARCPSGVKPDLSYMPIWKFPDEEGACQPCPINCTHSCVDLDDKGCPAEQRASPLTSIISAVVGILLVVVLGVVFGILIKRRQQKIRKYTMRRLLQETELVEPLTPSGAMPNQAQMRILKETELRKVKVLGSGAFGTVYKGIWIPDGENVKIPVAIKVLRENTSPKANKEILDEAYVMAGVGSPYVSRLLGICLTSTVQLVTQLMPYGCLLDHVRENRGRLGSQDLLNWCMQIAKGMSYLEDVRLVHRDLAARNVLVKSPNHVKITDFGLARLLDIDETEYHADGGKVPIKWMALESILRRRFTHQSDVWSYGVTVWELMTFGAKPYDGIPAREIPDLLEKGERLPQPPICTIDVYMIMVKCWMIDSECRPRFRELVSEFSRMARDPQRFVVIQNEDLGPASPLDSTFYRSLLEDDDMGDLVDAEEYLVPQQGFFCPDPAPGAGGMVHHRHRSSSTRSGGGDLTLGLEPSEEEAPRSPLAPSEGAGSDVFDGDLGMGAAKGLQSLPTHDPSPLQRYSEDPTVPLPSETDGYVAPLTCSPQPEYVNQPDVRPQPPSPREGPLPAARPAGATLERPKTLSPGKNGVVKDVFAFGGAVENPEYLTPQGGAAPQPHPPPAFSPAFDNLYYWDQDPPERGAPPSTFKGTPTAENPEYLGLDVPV

[28] = target: Serine/threonine-protein kinase PAK 3 (Homo sapiens) (UniProt O75914); settings: Compound concentration 1000.0 nM
[29] = target: Serine/threonine-protein kinase DCLK1 (Homo sapiens) (UniProt O15075); settings: Compound concentration 1000.0 nM
[30] = target: G protein-coupled receptor kinase 4 (Homo sapiens) (UniProt P32298); settings: Compound concentration 1000.0 nM
[31] = target: Mitogen-activated protein kinase 12 (Homo sapiens) (UniProt P53778); settings: Compound concentration 1000.0 nM
Mitogen-activated protein kinase 12 (Homo sapiens), sequence (P53778 whole entry): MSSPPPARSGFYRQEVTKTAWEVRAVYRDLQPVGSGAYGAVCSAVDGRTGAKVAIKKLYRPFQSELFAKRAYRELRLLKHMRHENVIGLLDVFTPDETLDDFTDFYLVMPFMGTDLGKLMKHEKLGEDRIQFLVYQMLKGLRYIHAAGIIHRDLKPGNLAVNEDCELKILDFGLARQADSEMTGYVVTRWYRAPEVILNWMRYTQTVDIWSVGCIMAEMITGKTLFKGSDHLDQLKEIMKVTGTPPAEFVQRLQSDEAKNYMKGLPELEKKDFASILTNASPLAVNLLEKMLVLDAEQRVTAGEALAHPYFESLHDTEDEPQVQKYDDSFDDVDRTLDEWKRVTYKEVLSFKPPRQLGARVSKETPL

[32] = target: Serine/threonine-protein kinase 33 (Homo sapiens) (UniProt Q9BYT3); settings: Compound concentration 1000.0 nM
[33] = target: Mitogen-activated protein kinase kinase kinase 5 (Homo sapiens) (UniProt Q99683); settings: Compound concentration 1000.0 nM
[34] = target: Leucine-rich repeat serine/threonine-protein kinase 2 (Homo sapiens) (UniProt Q5S007); settings: Compound concentration 1000.0 nM
[35] = system: Receptor-type tyrosine-protein kinase FLT3 (Homo sapiens), P36888 [N841I]; settings: Compound concentration 1000.0 nM
[36] = target: Mitogen-activated protein kinase kinase kinase 19 (Homo sapiens) (UniProt Q56UN5); settings: Compound concentration 1000.0 nM
[37] = target: Fibroblast growth factor receptor 1 (Homo sapiens) (UniProt P11362); settings: Compound concentration 1000.0 nM
[38] = system: Epidermal growth factor receptor (Homo sapiens), P00533 [T790M]; settings: Compound concentration 1000.0 nM
[39] = target: SRSF protein kinase 2 (Homo sapiens) (UniProt P78362); settings: Compound concentration 1000.0 nM
[40] = target: Non-receptor tyrosine-protein kinase TYK2 (Homo sapiens) (UniProt P29597); settings: Compound concentration 1000.0 nM
[41] = system: Receptor-type tyrosine-protein kinase FLT3 (Homo sapiens), P36888 [D835Y]; settings: Compound concentration 1000.0 nM
[42] = target: Alpha-2A adrenergic receptor (Homo sapiens) (UniProt P08913); settings: Compound concentration 10.0 uM
[43] = target: Mitogen-activated protein kinase kinase kinase kinase 1 (Homo sapiens) (UniProt Q92918); settings: Compound concentration 1000.0 nM
[44] = target: MAP kinase-activated protein kinase 5 (Homo sapiens) (UniProt Q8IW41); settings: Compound concentration 1000.0 nM
[45] = target: Calcium/calmodulin-dependent protein kinase type 1 (Homo sapiens) (UniProt Q14012); settings: Compound concentration 1000.0 nM

COc1ccc2c(O[C@@H]3C[C@H]4C(=O)N[C@]5(C(=O)O)CC5/C=C\CCCCC[C@H](NC(=O)OC5CCCC5)C(=O)N4C3)cc(-c3csc(NC(=O)C(C)C)n3)nc2c1C (stereo not given in full) [BI 1230]
inactive: residual activity [1] 100% | residual activity [2] 99% | residual activity [3] 94% | residual activity [4] 70% | residual activity [5] 57% | residual activity [6] 100% | residual activity [7] 79% | inhibition [8] 11.4% | residual activity [9] 74% | residual activity [10] 99% | residual activity [11] 77% | residual activity [12] 95% | residual activity [13] 100% | residual activity [14] 97% | residual activity [15] 100% | inhibition [16] 42.1% | residual activity [17] 95% | residual activity [18] 99% | residual activity [19] 94% | residual activity [20] 71% | residual activity [21] 97% | residual activity [22] 92% | residual activity [23] 98% | residual activity [24] 69% | residual activity [25] 100% | residual activity [26] 100% | residual activity [27] 97% | residual activity [28] 100% | residual activity [29] 76% | residual activity [30] 67% | residual activity [31] 91% | residual activity [32] 54% | residual activity [33] 93% | residual activity [34] 92% | residual activity [35] 89% | residual activity [36] 70% | residual activity [37] 98% | residual activity [38] 85% | residual activity [39] 100% | residual activity [40] 74% | residual activity [41] 87% | inhibition [42] 15.3% | residual activity [43] 100% | residual activity [44] 88% | residual activity [45] 100%

O=C(N[C@H]1CCCCC/C=C\C2C[C@@]2(C(=O)O)NC(=O)[C@@H]2C[C@@H](Oc3ccncc3)CN2C1=O)OC1CCCC1 (stereo not given in full) [BI 1675]
inactive: residual activity [1] 96% | residual activity [2] 88% | residual activity [3] 100% | residual activity [4] 77% | residual activity [5] 89% | residual activity [6] 100% | residual activity [7] 81% | inhibition [8] -7.7% | residual activity [9] 63% | residual activity [10] 99% | residual activity [11] 83% | residual activity [12] 100% | residual activity [13] 100% | residual activity [14] 72% | residual activity [15] 100% | inhibition [16] 11.1% | residual activity [17] 100% | residual activity [18] 100% | residual activity [19] 100% | residual activity [20] 81% | residual activity [21] 100% | residual activity [22] 60% | residual activity [23] 100% | residual activity [24] 88% | residual activity [25] 100% | residual activity [26] 100% | residual activity [27] 100% | residual activity [28] 88% | residual activity [29] 97% | residual activity [30] 80% | residual activity [31] 100% | residual activity [32] 89% | residual activity [33] 91% | residual activity [34] 100% | residual activity [35] 100% | residual activity [36] 93% | residual activity [37] 100% | residual activity [38] 91% | residual activity [39] 64% | residual activity [40] 99% | residual activity [41] 98% | inhibition [42] 0.78% | residual activity [43] 93% | residual activity [44] 96% | residual activity [45] 87%
